# Test: Determination of lanthanide (holmium, gadolinium) content of microspheres by complexometric titration and ICP-OES
# Type: physicochemical
# Conditions: Table 1, measured composition
# Description: The holmium content of the microspheres was determined using the complexometric titration for aluminium that has been described in the European Pharmacopoeia. In short, approximately 50 mg of the dried microspheres is accurately weighed, and dissolved in 1 N NaOH. To this solution 1 N HCl is added and the solution is diluted to 50 ml, 5 grams hexamethylentetramine is added and the pH is adjusted to 5, using 1 N HCl. Approximately 50 mg of xylenol orange is added as an indicator, and the solution is then titrated with 0.01 M EDTA, until the colour changes from purple to yellow. Analyses were performed in triplicate.
# The holmium content was measured by inductively coupled plasma optical emission spectrometry (IPC-OES). The microspheres are weighed and destructed at 100° C. with 5 ml 1 N NaOH, which was evaporated to dryness. 15 ml of 2% Nitric acid was added followed by a 1 in 50 dilution. Samples were introduced in an Optima 4300 CV (PerkinElmer; Norwalk, USA) and […] was measured at three different wavelengths (345.600, 339.898 and 347.426 nm) to accurately determine the holmium content.
# The gadolinium content of the GdAcAc microspheres was determined in the same way as described in Example 1.
substance,measurement,value
holmium acetylacetonate [HoAcAc crystals],"Ho, measured elemental composition",31.2 % w/w
